For 25 compounds, IC50 results are on record in patent US20160130278A1 (TAISHO PHARMACEUTICAL CO., LTD, priority 2013, published 2016).

The test deals with T1, human type 1 glycine transporter (GlyT1) (Homo sapiens, UniProt P48067).
T1 construct: T98G cells (glioma cells) expressing human type 1 glycine transporter (GlyT1) were used
T1 sequence (P48067 1-706): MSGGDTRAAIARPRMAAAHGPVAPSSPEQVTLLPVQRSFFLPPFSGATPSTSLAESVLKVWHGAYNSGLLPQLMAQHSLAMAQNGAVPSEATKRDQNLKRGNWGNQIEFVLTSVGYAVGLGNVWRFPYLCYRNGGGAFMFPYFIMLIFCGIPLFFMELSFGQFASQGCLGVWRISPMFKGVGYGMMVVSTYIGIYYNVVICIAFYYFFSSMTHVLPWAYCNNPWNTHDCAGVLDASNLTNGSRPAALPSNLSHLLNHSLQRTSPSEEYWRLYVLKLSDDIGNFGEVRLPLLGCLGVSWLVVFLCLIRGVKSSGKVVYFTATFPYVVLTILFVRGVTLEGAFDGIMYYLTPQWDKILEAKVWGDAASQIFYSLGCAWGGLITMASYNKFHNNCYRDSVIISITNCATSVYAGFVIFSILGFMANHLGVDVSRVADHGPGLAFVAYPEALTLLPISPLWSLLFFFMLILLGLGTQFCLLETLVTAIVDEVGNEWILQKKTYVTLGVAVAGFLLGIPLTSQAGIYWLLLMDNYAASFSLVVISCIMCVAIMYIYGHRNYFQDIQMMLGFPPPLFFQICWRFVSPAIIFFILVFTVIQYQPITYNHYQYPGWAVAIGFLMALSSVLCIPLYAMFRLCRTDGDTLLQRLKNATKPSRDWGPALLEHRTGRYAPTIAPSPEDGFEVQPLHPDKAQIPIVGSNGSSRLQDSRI
Briefly: Glycine uptake inhibition experiment ([3H]glycine uptake). It is filed as cell-based. As to conditions: GlyT1. The method, boiled down: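 T98G glioma cells expressing human GlyT1 were pretreated 10 min with compound in HEPES buffer pH 7.4 (0.2% BSA), then incubated with compound plus 250 nM final [3H]glycine for 15 min at room temperature. Intracellular radioactivity was counted after NaOH lysis; 10 μM ALX5407 defined non-specific uptake. IC50 came from 10^−9–10^−5 M curves.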

As a reminder, the IC50 is the concentration at which inhibition is half-maximal. Low readings indicate greater potency, high ones weaker potency. As to `O=C(NC(c1cccc(-c2cn[nH]c2)c1)C1(O)CCCC1)c1cccc(C(F)(F)F)c1Cl` (stereo not shown) [Compound 9, 2-chloro-N-{(1-hydroxycyclopentyl)[3-(1H-pyrazol-4-yl)phenyl]methyl}-3-(trifluoromethyl)benzamide], the IC50 stood at 110 nM.
Next, `O=C(NC(c1cccc(Cl)n1)C1(O)CCC(F)(F)CC1)c1ccc(C(F)(F)F)nc1Cl` (single isomer, unassigned) [Compound 356, 2-chloro-N-[(6-chloropyridin-2-yl)(4,4-difluoro-1-hydroxycyclohexyl)methyl]-6-(trifluoromethyl)pyridine-3-carboxamide]: 250 nM.
Next, `O=C(NC(c1cccc(F)c1Cl)[C@]1(O)CC[C@@H](F)CC1)c1ccc(C(F)(F)F)nc1Cl` (single isomer, unassigned) [Compound 304, 2-chloro-N-[[2-chloro-3-fluorophenyl)(cis-4-fluoro-1-hydroxycyclohexyl)methyl]-6-(trifluoromethyl)pyridine-3-carboxamide]: 290 nM; `CCn1cc(-c2cccc(C(NC(=O)c3ccc(C(F)(F)F)nc3C)C3(O)CCC(F)(F)CC3)c2)cn1` (stereo not shown) [Compound 140, N-{(4,4-difluoro-1-hydroxycyclohexyl)[3-(1-ethyl-1H-pyrazol-4-yl)phenyl]methyl}-2-methyl-6-(trifluoromethyl)pyridine-3-carboxamide]: 3300 nM; `O=C(NC(c1cccc(Cl)c1F)C1(O)CCC(F)(F)CC1)c1nccc(C(F)(F)F)c1Cl` (single isomer, unassigned) [Compound 168, 3-chloro-N-[(3-chloro-2-fluorophenyl)(4,4-difluoro-1-hydroxycyclohexyl)methyl]-4-(trifluoromethyl)pyridine-2-carboxamide]: 57 nM.
Next, `O=C(NC(c1cccc(Cl)c1F)C1(O)CCC(F)CC1)c1ccnc(C(F)(F)F)c1Cl` (single isomer, unassigned) [Compound 201, 3-chloro-N-[(3-chloro-2-fluorophenyl)(4-fluoro-1-hydroxycyclohexyl)methyl]-2-(trifluoromethyl)pyridine-4-carboxamide]: 130 nM.
As to `O=C(NC(c1cccc(F)c1Cl)[C@]1(O)CC[C@@H](F)CC1)c1nccc(C(F)(F)F)c1Cl` (single isomer, unassigned) [Compound 214, 3-chloro-N-[(2-chloro-3-fluorophenyl)(cis-4-fluoro-1-hydroxycyclohexyl)methyl]-4-(trifluoromethyl)pyridine-2-carboxamide], the midpoint of inhibition, the IC50, lay at 450 nM.
The compound `O=C(NC(c1cc(Cl)ccn1)C1(O)CCC(F)(F)CC1)c1nccc(C(F)(F)F)c1Cl` (single isomer, unassigned) [Compound 345, 3-chloro-N-[(4-chloropyridin-2-yl)(4,4-difluoro-1-hydroxycyclohexyl)methyl]-4-(trifluoromethyl)pyridine-2-carboxamide] came in with an IC50 of 270 nM.
Regarding `O=C(NC(c1cccc(F)c1Cl)[C@]1(O)CC[C@@H](F)CC1)c1cccc2ccncc12` (single isomer, unassigned) [Compound 275, N-[(2-chloro-3-fluorophenyl)(cis-4-fluoro-1-hydroxycyclohexyl)methyl]isoquinoline-8-carboxamide], the IC50 was 1600 nM.
With `CCn1cc(-c2cccc(C(NC(=O)c3ccc(C(F)(F)F)cc3C)C3(O)CCC(F)(F)CC3)c2)cn1` (stereo not shown) [Compound 184, N-{(4,4-difluoro-1-hydroxycyclohexyl)[3-(1-ethyl-1H-pyrazol-4-yl)phenyl]methyl}2-methyl-4-(trifluoromethyl)benzamide], it took 860 nM to reach half-maximal inhibition (IC50).
Next, `O=C(NC(c1cccc(Br)c1)C1(O)CCCC1)c1nccc(C(F)(F)F)c1Cl` (stereo not shown) [Compound 31, N-[(3-bromophenyl)(1-hydroxycyclopentyl)metyl]-3-chloro-4-(trifluoromethyl)pyridine-2-carboxamide]: 170 nM.
`O=C(NC(c1cccc(Cl)n1)[C@]1(O)CC[C@@H](F)CC1)c1cc(C(F)(F)F)ccc1Cl` (single isomer, unassigned) [Compound 362] registered an IC50 of 190 nM.
The result for `O=C(NC(c1cccnc1Cl)[C@]1(O)CC[C@@H](F)CC1)c1cc(C(F)(F)F)ccc1Cl` (single isomer, unassigned) [Compound 325, 2-chloro-N-[(2-chloropyridin-3-yl)(cis-4-fluoro-1-hydroxycyclohexyl)methyl]-5-(trifluoromethyl)benzamide] reads 430 nM; that for `Cn1nc2c(c1C(=O)NC(c1cccc(F)c1Cl)[C@]1(O)CC[C@@H](F)CC1)CCCC2` (single isomer, unassigned) [Compound 260, N-[(2-chloro-3-fluorophenyl)(cis-4-fluoro-1-hydroxycyclohexyl)methyl]-2-methyl-4,5,6,7-tetrahydro-2H-indazol-3-carboxamide], 1700 nM.
`CCn1cc(-c2cccc(C(NC(=O)c3c(Cl)ccc(OC)c3F)C3(O)CCC(F)(F)CC3)c2)cn1` (stereo not shown) [Compound 183, 6-chloro-N-{(4,4-difluoro-1-hydroxycyclohexyl)[3-(1-ethyl-1H-pyrazol-4-yl)phenyl]methyl}-2-fluoro-3-methoxybenzamide]: the IC50 was 2000 nM.
`CCn1cc(-c2cccc(C(NC(=O)c3ccccc3Cl)C3(O)CCC(F)(F)CC3)c2)cn1` (stereo not shown) [Compound 205, 2-chloro-N-[(4,4-difluoro-1-hydroxycyclohexyl)[3-(1-ethyl-1H-pyrazol-4-yl)phenyl]methyl}benzamide] showed an IC50 of 1900 nM.
Compound `O=C(NC(c1cc(Cl)ccn1)[C@]1(O)CC[C@@H](F)CC1)c1cccc(C(F)(F)F)c1Cl` (single isomer, unassigned) [Compound 331, 2-chloro-N-[(4-chloropyridin-2-yl)(cis-4-fluoro-1-hydroxycyclohexyl)methyl]-3-(trifluoromethyl)benzamide] gave an IC50 of 88 nM.
`O=C(NC(c1cc(F)cc(Cl)c1)C1(O)CCCC1)c1nccc(C(F)(F)F)c1Cl` (single isomer, unassigned) [Compound 94, 3-chloro-N-[(3-chloro-5-fluorophenyl)(1-hydroxycyclopentyl)methyl]-4-(trifluoromethyl)pyridine-2-carboxamide] registered an IC50 of 110 nM.
Next, `O=C(NC(c1cccc(Cl)n1)[C@]1(O)CC[C@@H](F)CC1)c1ccnc(C(F)(F)F)c1Cl` (single isomer, unassigned) [Compound 338, 3-chloro-N-[(6-chloropyridin-2-yl)(cis-4-fluoro-1-hydroxycyclohexyl)methyl]-2-(trifluoromethyl)pyridine-4-carboxamide]: 96 nM; `CCn1cc(-c2cccc(C(NC(=O)c3c(C)cccc3C)C3(O)CCC(F)(F)CC3)c2)cn1` (stereo not shown) [Compound 120, N{(4,4-difluoro-1-hydroxycyclohexyl)[3-(1-ethyl-1H-pyrazol-4-yl)phenyl]methyl}-2,6-dimethylbenzamide]: 740 nM.
Next, `O=C(NC(c1cccc(F)c1Cl)[C@]1(O)CC[C@@H](F)CC1)c1cc(C(F)(F)F)ccc1Cl` (single isomer, unassigned) [Compound 292, 2-chloro-N-[(2-chloro-3-fluorophenyl)(cis-4-fluoro-1-hydroxycyclohexyl)methyl]-5-(trifluoromethyl)benzamide]: 120 nM; `CCn1cc(-c2cccc(C(NC(=O)c3cc(Cl)ccc3C(F)(F)F)C3(O)CCC(F)(F)CC3)c2)cn1` (single isomer, unassigned) [Compound 217, 5-chloro-N-{(4,4-difluoro-1-hydroxycyclohexyl)[3-(1-ethyl-1H-pyrazol-4-yl)phenyl]methyl}-2-(trifluoromethyl)benzamide]: 580 nM.
As for `CCn1cc(-c2cccc(C(NC(=O)c3ccnc(C(F)(F)F)c3Cl)C3(O)CCC(F)(F)CC3)c2)cn1` (stereo not shown) [Compound 157, 3-chloro-N-[(4,4-difluoro-1-hydroxycyclohexyl)[3-(1-ethyl-1H-pyrazol-4-yl)phenyl]methyl]-2-(trifluoromethyl)pyridine-4-carboxamide], the IC50 came to 160 nM.
Next, `O=C(NC(c1cccc(F)c1)C1(O)CCCC1)c1nccc(C(F)(F)F)c1Cl` (single isomer, unassigned) [Compound 52, 3-chloro-N-[(3-fluorophenyl)(1-hydroxycyclopentyl)methyl]-4-(trifluoromethyl)pyridine-2-carboxamide]: 100 nM.
Regarding `CCn1cc(-c2cccc(C(NC(=O)c3cccc(C)c3Cl)C3(O)CCC(F)(F)CC3)c2)cn1` (single isomer, unassigned) [Compound 152, 2-chloro-N-{(4,4-difluoro-1-hydroxycyclohexyl)[3-(1-ethyl-1H-pyrazol-4-yl)phenyl]methyl}-3-methylbenzamide], half-maximal inhibition (IC50) required 1300 nM.
